Measurements reported in ChEMBL document CHEMBL1201862, “PubChem BioAssay data set” (2004).
The source made the active and inactive calls.

How the values were obtained:
Format in all cases: functional
[1] = target: T1, Mitogen-activated protein kinase kinase kinase kinase 2 (Homo sapiens, UniProt Q12851);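 note: measured as one member of a kinome-wide kinase panel, with MAP4K2 as the panel entry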
T1 sequence (Q12851 whole entry): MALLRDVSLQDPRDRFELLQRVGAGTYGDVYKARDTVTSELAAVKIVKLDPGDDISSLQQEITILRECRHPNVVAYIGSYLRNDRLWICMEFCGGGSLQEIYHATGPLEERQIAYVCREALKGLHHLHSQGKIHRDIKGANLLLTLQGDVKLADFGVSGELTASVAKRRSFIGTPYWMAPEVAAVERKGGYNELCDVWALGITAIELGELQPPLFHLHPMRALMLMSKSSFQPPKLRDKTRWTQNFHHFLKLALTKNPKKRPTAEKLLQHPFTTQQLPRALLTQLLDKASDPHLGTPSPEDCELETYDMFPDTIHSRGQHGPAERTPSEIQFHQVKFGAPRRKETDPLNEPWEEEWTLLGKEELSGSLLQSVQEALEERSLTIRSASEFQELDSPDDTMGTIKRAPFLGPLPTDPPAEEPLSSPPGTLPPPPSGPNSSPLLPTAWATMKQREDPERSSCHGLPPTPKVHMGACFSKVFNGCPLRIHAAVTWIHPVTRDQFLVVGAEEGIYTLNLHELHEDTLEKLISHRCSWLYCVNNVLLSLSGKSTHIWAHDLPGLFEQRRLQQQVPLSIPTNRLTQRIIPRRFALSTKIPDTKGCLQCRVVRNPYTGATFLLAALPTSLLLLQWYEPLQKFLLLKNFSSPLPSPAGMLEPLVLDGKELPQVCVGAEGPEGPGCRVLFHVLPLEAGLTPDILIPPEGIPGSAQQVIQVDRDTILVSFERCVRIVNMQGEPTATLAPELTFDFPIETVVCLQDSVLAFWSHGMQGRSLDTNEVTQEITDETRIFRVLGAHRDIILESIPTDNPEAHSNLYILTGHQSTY

[2] = target: T2, Serine/threonine-protein kinase D3 (Homo sapiens, UniProt O94806);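 note: determined within a kinase panel screen, with PRKCN as the panel member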
T2 sequence (O94806 whole entry): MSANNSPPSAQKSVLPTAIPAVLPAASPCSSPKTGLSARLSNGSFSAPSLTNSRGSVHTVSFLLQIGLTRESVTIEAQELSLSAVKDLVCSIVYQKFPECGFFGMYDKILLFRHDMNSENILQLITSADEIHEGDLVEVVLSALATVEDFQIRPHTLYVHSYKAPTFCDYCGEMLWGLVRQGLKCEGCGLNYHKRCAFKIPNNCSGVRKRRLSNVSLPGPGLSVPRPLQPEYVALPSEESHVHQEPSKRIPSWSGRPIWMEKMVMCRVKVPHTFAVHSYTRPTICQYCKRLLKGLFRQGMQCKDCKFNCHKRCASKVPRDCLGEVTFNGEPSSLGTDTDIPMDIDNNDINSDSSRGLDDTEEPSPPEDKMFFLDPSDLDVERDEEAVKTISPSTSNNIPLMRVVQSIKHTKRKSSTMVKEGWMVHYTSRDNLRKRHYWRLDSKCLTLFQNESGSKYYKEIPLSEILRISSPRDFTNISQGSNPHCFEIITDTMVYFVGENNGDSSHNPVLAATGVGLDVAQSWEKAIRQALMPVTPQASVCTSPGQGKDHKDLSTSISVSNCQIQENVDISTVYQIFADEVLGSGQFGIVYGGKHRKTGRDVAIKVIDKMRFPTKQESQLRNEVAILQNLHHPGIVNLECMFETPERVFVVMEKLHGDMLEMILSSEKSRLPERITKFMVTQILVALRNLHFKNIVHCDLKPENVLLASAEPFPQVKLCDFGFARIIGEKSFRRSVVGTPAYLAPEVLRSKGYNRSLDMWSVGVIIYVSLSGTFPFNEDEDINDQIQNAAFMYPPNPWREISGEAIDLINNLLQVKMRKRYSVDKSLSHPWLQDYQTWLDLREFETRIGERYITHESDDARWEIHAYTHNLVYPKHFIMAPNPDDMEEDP

[3] = target: Tyrosine-protein kinase receptor TYRO3 (Homo sapiens, UniProt Q06418);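 note: TYRO3 value obtained as one member of a kinome-wide profiling panel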
[4] = target: BDNF/NT-3 growth factors receptor (Homo sapiens, UniProt Q16620);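 note: NTRK2 measured as one member of a broad kinome-wide kinase profiling panel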
[5] = target: Casein kinase I isoform alpha (Homo sapiens, UniProt P48729)
Activin receptor type-1 = target: T3, Activin receptor type-1 (Homo sapiens, UniProt Q04771); experiment: Navigating the Kinome. Panel member name: ACVR1
T3 sequence (Q04771 whole entry): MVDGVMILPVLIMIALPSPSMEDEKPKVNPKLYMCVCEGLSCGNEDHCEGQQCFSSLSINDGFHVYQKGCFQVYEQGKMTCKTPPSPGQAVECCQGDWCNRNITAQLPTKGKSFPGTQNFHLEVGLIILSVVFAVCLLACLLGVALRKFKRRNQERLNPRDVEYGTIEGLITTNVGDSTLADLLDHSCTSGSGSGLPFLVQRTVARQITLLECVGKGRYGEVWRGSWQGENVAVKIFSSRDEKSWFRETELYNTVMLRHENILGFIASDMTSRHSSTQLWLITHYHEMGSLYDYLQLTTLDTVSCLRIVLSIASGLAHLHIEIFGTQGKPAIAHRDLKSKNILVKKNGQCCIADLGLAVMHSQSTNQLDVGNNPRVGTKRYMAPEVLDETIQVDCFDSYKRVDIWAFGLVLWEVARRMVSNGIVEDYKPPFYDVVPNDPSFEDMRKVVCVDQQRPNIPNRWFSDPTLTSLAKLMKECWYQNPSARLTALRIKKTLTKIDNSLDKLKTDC

[6] = target: Mitogen-activated protein kinase kinase kinase kinase 4 (Homo sapiens, UniProt O95819)
Activated CDC42 kinase 1 = Activated CDC42 kinase 1 (Homo sapiens, UniProt Q07912); experiment: Navigating the Kinome. Panel member name: ACK1
[7] = target: Death-associated protein kinase 3 (Homo sapiens, UniProt O43293);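 note: measured as one member of a kinome-wide profiling panel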
Aurora kinase B = Aurora kinase B (Homo sapiens, UniProt Q96GD4)
[8] = target: Serine/threonine-protein kinase pim-1 (Homo sapiens, UniProt P11309)
[9] = target: Platelet-derived growth factor receptor alpha (Homo sapiens, UniProt P16234); experiment: Navigating the Kinome. Panel member name: PDGFRA
[10] = target: Vascular endothelial growth factor receptor 2 (Homo sapiens, UniProt P35968)
[11] = target: Cyclin-dependent kinase 5 (Homo sapiens, UniProt Q00535);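 note: CDK5 measured as one member of a kinase profiling panel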
Cyclin-dependent kinase 5, sequence (Q00535 whole entry): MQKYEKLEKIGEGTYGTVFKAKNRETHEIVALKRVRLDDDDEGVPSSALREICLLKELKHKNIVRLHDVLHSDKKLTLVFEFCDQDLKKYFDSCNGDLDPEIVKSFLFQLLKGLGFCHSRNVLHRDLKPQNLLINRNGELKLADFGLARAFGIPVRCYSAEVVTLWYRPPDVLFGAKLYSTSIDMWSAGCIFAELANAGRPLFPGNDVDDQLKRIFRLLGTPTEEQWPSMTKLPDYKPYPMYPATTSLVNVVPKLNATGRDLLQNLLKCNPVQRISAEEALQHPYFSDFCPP

Casein kinase I isoform alpha, sequence (P48729 whole entry, canonical isoform): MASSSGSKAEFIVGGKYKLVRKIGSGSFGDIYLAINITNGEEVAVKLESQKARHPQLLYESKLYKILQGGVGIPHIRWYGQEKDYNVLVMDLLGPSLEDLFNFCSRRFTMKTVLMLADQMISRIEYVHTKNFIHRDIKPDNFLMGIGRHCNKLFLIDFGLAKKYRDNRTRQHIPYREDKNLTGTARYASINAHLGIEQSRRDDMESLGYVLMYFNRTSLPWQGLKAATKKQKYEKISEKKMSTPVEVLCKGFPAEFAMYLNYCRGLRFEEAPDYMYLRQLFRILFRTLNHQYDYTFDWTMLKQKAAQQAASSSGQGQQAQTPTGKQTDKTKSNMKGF
Vascular endothelial growth factor receptor 2, sequence (P35968 whole entry): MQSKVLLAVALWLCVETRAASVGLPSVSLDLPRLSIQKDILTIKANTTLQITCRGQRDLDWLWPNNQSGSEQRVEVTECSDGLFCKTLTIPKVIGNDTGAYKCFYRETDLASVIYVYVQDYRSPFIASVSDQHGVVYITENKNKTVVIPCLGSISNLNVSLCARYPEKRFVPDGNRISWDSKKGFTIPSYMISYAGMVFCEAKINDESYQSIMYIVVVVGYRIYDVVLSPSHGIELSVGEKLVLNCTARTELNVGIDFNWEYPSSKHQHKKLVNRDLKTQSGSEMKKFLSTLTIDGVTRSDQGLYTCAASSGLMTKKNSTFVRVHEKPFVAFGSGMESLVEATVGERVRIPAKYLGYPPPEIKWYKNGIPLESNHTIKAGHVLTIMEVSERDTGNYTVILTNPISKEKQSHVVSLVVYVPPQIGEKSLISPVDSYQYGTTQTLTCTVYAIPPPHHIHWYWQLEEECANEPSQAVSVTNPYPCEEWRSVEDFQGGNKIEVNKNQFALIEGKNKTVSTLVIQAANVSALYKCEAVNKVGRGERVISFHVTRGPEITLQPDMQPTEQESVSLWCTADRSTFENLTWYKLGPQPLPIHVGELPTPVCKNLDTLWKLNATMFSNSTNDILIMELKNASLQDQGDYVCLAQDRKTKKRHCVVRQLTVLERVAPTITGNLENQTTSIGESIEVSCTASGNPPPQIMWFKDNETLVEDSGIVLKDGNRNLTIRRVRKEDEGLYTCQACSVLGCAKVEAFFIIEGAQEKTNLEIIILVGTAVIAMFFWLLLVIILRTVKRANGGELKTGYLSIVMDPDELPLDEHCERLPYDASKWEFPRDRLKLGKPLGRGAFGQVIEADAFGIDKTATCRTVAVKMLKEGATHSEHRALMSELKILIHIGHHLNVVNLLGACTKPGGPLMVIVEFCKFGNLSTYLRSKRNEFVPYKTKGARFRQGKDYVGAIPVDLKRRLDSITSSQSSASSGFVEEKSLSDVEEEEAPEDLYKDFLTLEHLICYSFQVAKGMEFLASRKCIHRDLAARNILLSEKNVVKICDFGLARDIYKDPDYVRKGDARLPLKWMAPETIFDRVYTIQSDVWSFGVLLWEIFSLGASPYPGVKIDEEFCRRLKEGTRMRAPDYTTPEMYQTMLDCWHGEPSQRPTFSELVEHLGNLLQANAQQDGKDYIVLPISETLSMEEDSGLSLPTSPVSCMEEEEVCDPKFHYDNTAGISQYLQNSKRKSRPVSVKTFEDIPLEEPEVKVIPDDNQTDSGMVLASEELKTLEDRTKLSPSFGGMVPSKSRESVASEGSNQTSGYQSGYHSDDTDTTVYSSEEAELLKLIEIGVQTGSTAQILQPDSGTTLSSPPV
Serine/threonine-protein kinase pim-1, sequence (P11309 whole entry): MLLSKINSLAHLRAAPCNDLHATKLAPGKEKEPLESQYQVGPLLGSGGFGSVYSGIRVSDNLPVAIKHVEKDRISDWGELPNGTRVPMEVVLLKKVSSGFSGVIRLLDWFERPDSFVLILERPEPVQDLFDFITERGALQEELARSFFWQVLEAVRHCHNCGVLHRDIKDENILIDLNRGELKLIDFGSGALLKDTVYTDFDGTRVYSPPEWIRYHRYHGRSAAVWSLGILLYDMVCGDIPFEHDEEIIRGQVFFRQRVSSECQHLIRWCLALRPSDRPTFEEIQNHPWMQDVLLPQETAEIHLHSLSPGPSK
Death-associated protein kinase 3, sequence (O43293 whole entry): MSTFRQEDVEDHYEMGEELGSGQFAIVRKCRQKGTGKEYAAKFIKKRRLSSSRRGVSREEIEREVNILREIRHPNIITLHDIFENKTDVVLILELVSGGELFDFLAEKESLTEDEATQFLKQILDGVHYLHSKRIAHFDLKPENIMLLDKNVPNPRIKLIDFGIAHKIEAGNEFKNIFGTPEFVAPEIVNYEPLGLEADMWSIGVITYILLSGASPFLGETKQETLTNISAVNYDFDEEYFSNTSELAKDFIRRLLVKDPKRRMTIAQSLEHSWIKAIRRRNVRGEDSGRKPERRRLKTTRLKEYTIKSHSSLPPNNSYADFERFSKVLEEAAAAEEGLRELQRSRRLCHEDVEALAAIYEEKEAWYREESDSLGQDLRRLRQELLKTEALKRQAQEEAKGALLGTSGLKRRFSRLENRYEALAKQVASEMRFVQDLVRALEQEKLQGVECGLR
Activated CDC42 kinase 1, sequence (Q07912 whole entry): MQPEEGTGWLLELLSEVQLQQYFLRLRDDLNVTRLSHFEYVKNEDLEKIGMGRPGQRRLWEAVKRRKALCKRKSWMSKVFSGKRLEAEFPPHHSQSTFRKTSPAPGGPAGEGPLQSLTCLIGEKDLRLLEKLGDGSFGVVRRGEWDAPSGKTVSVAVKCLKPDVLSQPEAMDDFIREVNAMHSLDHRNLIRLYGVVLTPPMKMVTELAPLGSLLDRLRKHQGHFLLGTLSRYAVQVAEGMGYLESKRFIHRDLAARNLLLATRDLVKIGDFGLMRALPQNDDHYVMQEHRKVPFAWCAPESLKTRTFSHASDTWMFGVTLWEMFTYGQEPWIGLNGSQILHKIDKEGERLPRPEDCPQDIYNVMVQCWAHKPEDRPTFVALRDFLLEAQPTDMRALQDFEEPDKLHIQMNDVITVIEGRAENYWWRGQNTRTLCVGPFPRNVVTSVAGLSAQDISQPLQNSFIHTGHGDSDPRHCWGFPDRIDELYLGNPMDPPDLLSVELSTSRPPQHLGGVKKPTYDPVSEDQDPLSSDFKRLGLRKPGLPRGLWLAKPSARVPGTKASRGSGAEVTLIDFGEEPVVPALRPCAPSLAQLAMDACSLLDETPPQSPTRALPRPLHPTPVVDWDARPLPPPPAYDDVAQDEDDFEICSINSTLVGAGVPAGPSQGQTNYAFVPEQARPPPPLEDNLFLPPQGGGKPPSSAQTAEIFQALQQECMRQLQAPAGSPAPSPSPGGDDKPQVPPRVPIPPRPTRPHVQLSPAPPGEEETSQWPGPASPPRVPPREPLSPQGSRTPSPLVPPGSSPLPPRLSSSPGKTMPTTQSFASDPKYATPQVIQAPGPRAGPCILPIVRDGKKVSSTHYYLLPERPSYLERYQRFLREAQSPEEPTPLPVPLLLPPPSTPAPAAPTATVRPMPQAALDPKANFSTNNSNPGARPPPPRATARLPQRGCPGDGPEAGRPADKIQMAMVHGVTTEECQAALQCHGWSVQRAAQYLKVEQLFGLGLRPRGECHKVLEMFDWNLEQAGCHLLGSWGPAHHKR
Aurora kinase B, sequence (Q96GD4 whole entry): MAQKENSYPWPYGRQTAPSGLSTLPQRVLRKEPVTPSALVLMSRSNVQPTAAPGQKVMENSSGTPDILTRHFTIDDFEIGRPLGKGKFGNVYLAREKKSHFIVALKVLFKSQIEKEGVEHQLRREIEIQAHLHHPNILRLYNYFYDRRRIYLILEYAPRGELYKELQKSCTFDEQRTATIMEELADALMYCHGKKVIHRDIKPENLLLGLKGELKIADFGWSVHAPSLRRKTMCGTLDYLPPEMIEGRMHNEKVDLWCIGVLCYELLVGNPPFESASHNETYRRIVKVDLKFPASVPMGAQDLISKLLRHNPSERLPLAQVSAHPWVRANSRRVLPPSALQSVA
BDNF/NT-3 growth factors receptor, sequence (Q16620 whole entry, canonical isoform): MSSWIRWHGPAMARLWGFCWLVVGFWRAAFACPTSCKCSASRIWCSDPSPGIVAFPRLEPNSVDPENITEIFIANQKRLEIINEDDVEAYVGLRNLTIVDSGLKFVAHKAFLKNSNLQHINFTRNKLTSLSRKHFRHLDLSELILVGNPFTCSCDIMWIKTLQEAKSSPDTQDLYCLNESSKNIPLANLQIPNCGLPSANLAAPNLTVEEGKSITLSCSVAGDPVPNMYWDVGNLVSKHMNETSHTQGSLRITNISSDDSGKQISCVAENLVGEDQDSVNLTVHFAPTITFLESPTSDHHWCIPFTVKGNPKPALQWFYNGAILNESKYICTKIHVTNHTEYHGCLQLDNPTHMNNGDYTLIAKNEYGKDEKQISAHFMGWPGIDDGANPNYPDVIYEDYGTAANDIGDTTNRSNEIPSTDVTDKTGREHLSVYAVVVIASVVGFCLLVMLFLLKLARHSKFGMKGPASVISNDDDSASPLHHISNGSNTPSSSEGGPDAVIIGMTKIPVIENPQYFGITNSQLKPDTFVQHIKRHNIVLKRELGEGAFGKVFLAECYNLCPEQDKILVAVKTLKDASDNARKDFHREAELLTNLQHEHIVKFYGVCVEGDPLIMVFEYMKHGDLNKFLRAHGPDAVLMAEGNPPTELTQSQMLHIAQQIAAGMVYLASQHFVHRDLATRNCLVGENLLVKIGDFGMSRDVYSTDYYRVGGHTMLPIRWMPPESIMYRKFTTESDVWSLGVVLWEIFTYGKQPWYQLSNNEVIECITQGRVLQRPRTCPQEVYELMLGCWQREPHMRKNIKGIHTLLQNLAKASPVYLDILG

SMILES	Ki [1]	Ki [2]	Ki [3]	Ki [4]	Ki [5]	Ki (Activin receptor type-1)	Ki [6]	Ki (Activated CDC42 kinase 1)	Ki [7]	Ki (Aurora kinase B)	Ki [8]	Ki [9]	Ki [10]	Ki [11]	other results
OC1CCC(Nc2nc(Cl)cc(-c3c[nH]c4ncccc34)n2)CC1 (stereo not given)	0.0398 µM (active)	0.0158 µM (active)	> 2 µM (inactive)	0.398 µM (active)	0.0631 µM (active)	1.26 µM (active)	> 0.00316 µM (inactive)	3.16 µM (active)	0.0794 µM (active)	0.501 µM (active)	1 µM (active)	1 µM (active)	0.251 µM (active)	0.01 µM (active)	pKi [1]: 7.4; pKi [2]: 7.8; pKi [4]: 6.4; pKi [5]: 7.2; pKi (Activin receptor type-1): 5.9; pKi (Activated CDC42 kinase 1): 5.5; pKi [7]: 7.1; pKi (Aurora kinase B): 6.3; pKi [8]: 6; pKi [9]: 6; pKi [10]: 6.6; pKi [11]: 8
COc1cccc(CNC(=O)c2cnc(-c3ccncc3)nc2)c1	> 2.51 µM (inactive)	> 3.98 µM (inactive)	> 3.16 µM (inactive)	> 3.98 µM (inactive)	> 3.98 µM (inactive)	> 3.98 µM (inactive)	> 5.01 µM (inactive)	> 3.98 µM (inactive)	> 5.01 µM (inactive)	> 3.98 µM (inactive)	> 6.31 µM (inactive)	> 2.51 µM (inactive)	> 2.51 µM (inactive)	> 3.16 µM (inactive)	–
